Data as given in US20090099133A1, “Isoquinolines Derivatives as Igf-1R Inhibitors” (priority 2005, published 2009).
pIC50: −log10 of the molar value. Values after ≈ are worked out from the molar mass of the structure shown. Where a name gives a salt, the structure may show the parent alone. Read-outs that look alike come from different tables or passages of the source. One block for each compound: values may come before it.

Tests used:
[1] = target: T1, alkaline phosphatase (Bos taurus, UniProt P19111); test: Dephosphorylation by alkaline phosphatase in vitro; format: in vitro ADME; conditions: bovine, bovine alkaline phosphatase (type VII S, Sigma-Aldrich); phosphatase concentration of 10 units/ml, 37° C., pH 7.4; read-out: half-life time of dephosphorylation
T1 construct: purchased Sigma-Aldrich type VII S
From the text: The ability of bovine alkaline phosphatase (type VII S, Sigma-Aldrich) to dephosphorylate the title compound was investigated in vitro. […] Intravenous administration of the title compound is consequently expected to result in a rapid formation of the active moiety (1R)-1-(3,4,5-trimethoxyphenyl)-2-formyl-5-hydroxy-6-methoxy-1,2,3,4-tetrahydroisoquinoline (see FIG. 1).

[2] = Solubility in a physiologically acceptable buffer (sodium phosphate buffer, pH 7.4); format: physicochemical; conditions: sodium phosphate buffer at pH 7.4
From the text: The corresponding solubility of the parent compound is about 20 microgram.

[3] = test system: phospho-MAPK (Erk1/2) in DU-145 cells; test: Inhibition of IGF-1 stimulated phosphorylation of MAPK in DU-145 cells (immunoblotting); format: cell-based; conditions: Homo sapiens
Experimental: (§1) DU-145 cells (prostate cancer) were incubated over night with the title compound in serum free medium. After stimulation for 15 minutes with IGF-1 (50 nM), the cells were lyzed and the lysates analysed by immunoblotting for phospho-MAPK and phospho-AKT.

[4] = test system: phospho-AKT in DU-145 cells; test: Inhibition of IGF-1 stimulated phosphorylation of AKT in DU-145 cells (immunoblotting); format: cell-based; conditions: Homo sapiens, 0.25 h, incubated over night in serum free medium, IGF-1 (50 nM) stimulation 15 minutes
Experimental: as §1

T1 sequence (P19111 20-506 limits assumed): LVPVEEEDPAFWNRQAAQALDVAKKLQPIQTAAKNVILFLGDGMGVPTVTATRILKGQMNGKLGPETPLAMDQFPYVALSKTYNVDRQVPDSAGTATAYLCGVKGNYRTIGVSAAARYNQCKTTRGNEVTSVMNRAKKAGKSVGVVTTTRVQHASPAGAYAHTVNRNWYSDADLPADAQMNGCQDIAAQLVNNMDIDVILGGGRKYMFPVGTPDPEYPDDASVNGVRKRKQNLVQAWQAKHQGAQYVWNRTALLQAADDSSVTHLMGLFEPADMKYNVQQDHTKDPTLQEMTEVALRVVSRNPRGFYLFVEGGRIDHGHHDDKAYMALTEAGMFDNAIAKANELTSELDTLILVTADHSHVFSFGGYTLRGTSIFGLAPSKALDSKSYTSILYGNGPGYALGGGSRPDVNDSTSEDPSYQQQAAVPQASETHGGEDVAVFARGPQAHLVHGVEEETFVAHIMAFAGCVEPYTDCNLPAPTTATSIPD

SMILES: COc1cc([C@@H]2c3ccc(OC)c(OP(=O)(O)O)c3CCN2C=O)cc(OC)c1OC (as salt: phosphate) [(1R)-1-(3,4,5-trimethoxyphenyl)-2-formyl-5-(dihydrogen phosphate)-6-methoxy-1,2,3,4-tetrahydroisoquinoline]
melting point: 138 to 141 °C

SMILES: COc1cc([C@@H]2c3ccc(OC)c(OP(=O)(O)O)c3CCN2C=O)cc(OC)c1OC [(1R)-1-(3,4,5-trimethoxyphenyl)-2-formyl-5-(dihydrogen phosphate)-6-methoxy-1,2,3,4-tetrahydroisoquinoline]
half-life [1]: 8 min | solubility ([2]; aqueous buffer, read-out: solubility): > 50000 µg/mL

pIC50 ([3]; 0.25 h, incubated over night in serum free medium, IGF-1 (50 nM) stimulation 15 minutes, read-out: IC50 inhibition of phosphorylation of MAPK (Erk1/2)): 7.30 | solubility ([2]; aqueous buffer, parent compound, read-out: solubility): ~20 µg/mL (≈ 53.6 µM) | solubility ([2]; parent compound): about 20 microgram | pIC50 [4]: 7.40 | melting point: 190 to 192 °C
SMILES: COc1ccc2c(c1O)CCN(C=O)[C@@H]2c1cc(OC)c(OC)c(OC)c1 [(1R)-1-(3,4,5-trimethoxyphenyl)-2-formyl-5-hydroxy-6-methoxy-1,2,3,4-tetrahydroisoquinoline]

SMILES: COc1cc([C@@H]2c3cc4c(cc3[C@H](O)[C@H]3COC(=O)[C@@H]23)OCO4)cc(OC)c1OC [Picropodophyllin, reference compound]
pIC50 ([3]; standard, read-out: IC50 inhibition of phospho-MAPK (Erk1/2)): ~5.30
